pEC50: −log10 of the molar value.
Assay: Inhibition of MCT1 in human Raji cells assessed as inhibition of cell proliferation after 96 hrs by MTT assay

| Compound | pEC50 |
| --- | --- |
| CC(C)Cc1nn(C)c(=O)c2c(SCCCO)n(Cc3ccnc(Cl)c3)cc12 | 6.00 |
| CC(C)Cc1nn(C)c(=O)c2c(SCCCO)n(Cc3cnc(Cl)c4ccccc34)cc12 | 7.26 |
| CC(C)Cc1nn(C)c(=O)c2c(SCCCO)n(Cc3cc(Cl)nc4ccccc34)cc12 | 7.22 |
| CC(C)Cc1nn(C)c(=O)c2c(SCCCO)n(Cc3cc(NCCCCCNC(=O)[C@@H](N)CCC(N)=O)nc4ccccc34)cc12 | 9.10 |
| CC(C)Cc1nn(C)c(=O)c2c(SCCCO)n(Cc3cnc(NCCCCCNC(=O)[C@@H](N)CCC(N)=O)c4ccccc34)cc12 | 9.80 |
| CC(C)Cc1nn(C)c(=O)c2c(SCCCO)n(Cc3ccc(C#CCCCOc4ccc(C[C@H](N)C(=O)O)cc4)c4ccccc34)cc12 | 9.10 |
| CC(C)Cc1nn(C)c(=O)c2c(SCCCO)n(Cc3ccc(C#CCCCNC(=O)[C@@H](N)CCC(N)=O)c4ccccc34)cc12 | 8.40 |
| CC(C)Cc1nn(C)c(=O)c2c(SCCCO)n(Cc3ccc(Br)c4ccccc34)cc12 | 7.96 |

More lines, now with the values ahead:

| pEC50 | Compound |
| --- | --- |
| 6.28 | CC(C)Cc1nn(C)c(=O)c2c(SCCCO)n(Cc3ccnc(NCCCCCN)c3)cc12 |
| 7.62 | CC(C)Cc1nn(C)c(=O)c2c(SCCCO)n(Cc3cc(NCCCCCN)nc4ccccc34)cc12 |
| 6.38 | CC(C)Cc1nn(C)c(=O)c2c(SCCCO)n(Cc3ccc(NCCCCCN)nc3)cc12 |
| 9.10 | CC(C)Cc1nn(C)c(=O)c2c(SCCCO)n(Cc3cnc(NCCCCCN)c4ccccc34)cc12 |
| 6.30 | CC(C)Cc1nn(C)c(=O)c2c(SCCCO)n(Cc3ccnc(NCCCCCNC(=O)[C@@H](N)CCC(N)=O)c3)cc12 |
| 7.00 | CC(C)Cc1nn(C)c(=O)c2c(SCCCO)n(Cc3ccc(NCCCCCNC(=O)[C@@H](N)CCC(N)=O)nc3)cc12 |
| 6.16 | CC(C)Cc1nn(C)c(=O)c2c(SCCCO)n(Cc3ccc(Cl)nc3)cc12 |
